{"source": "patent US20090092624A1", "about": "“Antiinfective Flavononol Compounds and Methods of Use Thereof” (priority 2007, published 2009)", "key": {"[1]": {"test_system": "Human influenza A virus subtype /PR/8/34 H1N1", "assay": "microbe, parasite or virus in culture", "format": "cell-based, Influenza A/PR/8/34 (H1N1)", "conditions": "MDCK"}, "[2]": {"test_system": "Escherichea coli (ATCC# 53499)", "assay": "microbe, parasite or virus in culture", "conditions": "Escherichia coli, ATCC53499, read-out: IC50 value, adhesion inhibition"}, "[3]": {"test_system": "H1N1 virions", "format": "binding, Influenza A virus (H1N1)"}, "[4]": {"test_system": "Candida albicans (ATCC# 96133)", "assay": "microbe, parasite or virus in culture", "conditions": "ATCC96133, read-out: IC50 value, adhesion inhibition"}}, "note": "“And” between values parts separate entries of the source, which are not always exact repeats. Identical values can stand only once. “Also recorded” adds a separate entry of the source."}
{"smiles": "CCOC(=O)C1=C[C@@H](OC(CC)CC)[C@H](NC(C)=O)[C@@H](N)C1", "note": "[Oseltamivir]", "values": [{"measurement": "IC50", "setting": "[1]", "result": "0.1 µg/mL and 320 nM"}]}
{"smiles": "NC12CC3CC(CC(C3)C1)C2", "note": "[Amantadine]", "values": [{"measurement": "IC50", "setting": "[1]", "result": "4.7 µg/mL and 27 µM"}]}
{"smiles": "O=C1c2c(O)cc(O)cc2OC(c2cc(O)c(O)c(O)c2)C1O", "note": "(stereo not drawn) [Tristenonol aglycone, 3,5,7-Trihydroxy-2-(3,4,5-trihydroxyphenyl)-chroman-4-one]", "values": [{"measurement": "IC50", "setting": "[2]", "result": 60, "unit": "µM"}, {"measurement": "direct binding to H1N1 virus surface", "setting": "[3]", "result": "does bind directly to the virus surface; also recorded: bound to the H1N1 virus surface"}, {"measurement": "IC50", "setting": "[1]", "result": "2.8 µg/mL and 5.4 µM"}, {"measurement": "IC50", "setting": "[4]", "result": 89.1, "unit": "µM"}]}
